Reference: patent US10973778B2, “Using edible carriers to produce Curcuma extracts for oral and topical use” (California Northstate College of Pharmacy, LLC, priority 2012, dated 2021)

Assay: UV absorption spectra of sunscreen agents and Curcuma longa L. extract
Type: physicochemical
Conditions: absorption spectrum in methanol; for wavelength above which absorption is practically zero / practically no absorption: 0.5-20 ug/ml depending on agent (FIGS. 1A-1D); for wavelength above which absorption is low / very low: octocrylene 0.5 ug/ml, avobenzone 5 ug/ml (FIGS. 1B, 1E)
Source text: FIGS. 1A-1F compare the absorption spectra of representative current state-of-the-art sunscreen agents to the absorption spectra of Curcuma longa L., according to some embodiments.
The representative sunscreen agents show peaks in the absorption spectrum between the wavelengths of 290 nm to 400 nm which is the range of interest. Ideally, a desired agent would absorb energy across the entire range of 290 nm to 400 nm. In FIGS. 1A-1E, for example, a variety of peak positions are seen in the representative agents, where a high (desirable) absorption can be shown at the wavelength of the peak but there is usually a low or zero absorption at the trough, which is, of course, undesirable. Even combinations of sunscreen agents with peaks and troughs may leave areas within the wavelength range that are not covered, leaving wavelengths for which there is little or no UV protection, an undesirable situation.

| wavelength above which absorption is practically zero / practically no absorption | wavelength above which absorption is low / very low | Compound |
| --- | --- | --- |
| about 340 nm | – | CC1CC(OC(=O)c2ccccc2O)CC(C)(C)C1 (centres unmarked) [homosalate] |
| – | about 390 nm | COc1ccc(C(=O)CC(=O)c2ccc(C(C)(C)C)cc2)cc1 [avobenzone] |
| about 380 nm | – | COc1ccc(C(=O)c2ccccc2)c(O)c1 [oxybenzone] |
| about 380 nm | about 370 nm | CCCCC(CC)COC(=O)C(C#N)=C(c1ccccc1)c1ccccc1 (centres unmarked) [octocrylene] |
